Results taken from patent publication US10329295B2, “Pyrrolotriazine inhibitors of IRAK4 activity” (MERCK SHARP & DOHME CORP., priority 2015, dated 2019).
Structures can show the parent of a compound that is named as a salt. One block for each molecule: values may come before it.

Molecular target: GST tagged IRAK4 (Homo sapiens (Human), UniProt Q9NWZ3)
Assay: IRAK4 Kinase Assay (IMAP fluorescence polarization)
Assay type: biochemical
Settings: 0.5 nM GST tagged IRAK4, 100 μM ATP, 30 minutes at 25° C.
Procedure, shortened: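 Reactions contained 0.5 nM GST-IRAK4, 100 nM fluorescent peptide substrate and 100 μM ATP in 10 mM Tris-HCl pH 7.2 with 1 mM MgCl2, and were started with ATP. After 30 minutes at 25° C they were stopped with IMAP reagent. Substrate phosphorylation was read as the change in fluorescence polarization.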

Chain of GST tagged IRAK4 (Q9NWZ3 whole entry): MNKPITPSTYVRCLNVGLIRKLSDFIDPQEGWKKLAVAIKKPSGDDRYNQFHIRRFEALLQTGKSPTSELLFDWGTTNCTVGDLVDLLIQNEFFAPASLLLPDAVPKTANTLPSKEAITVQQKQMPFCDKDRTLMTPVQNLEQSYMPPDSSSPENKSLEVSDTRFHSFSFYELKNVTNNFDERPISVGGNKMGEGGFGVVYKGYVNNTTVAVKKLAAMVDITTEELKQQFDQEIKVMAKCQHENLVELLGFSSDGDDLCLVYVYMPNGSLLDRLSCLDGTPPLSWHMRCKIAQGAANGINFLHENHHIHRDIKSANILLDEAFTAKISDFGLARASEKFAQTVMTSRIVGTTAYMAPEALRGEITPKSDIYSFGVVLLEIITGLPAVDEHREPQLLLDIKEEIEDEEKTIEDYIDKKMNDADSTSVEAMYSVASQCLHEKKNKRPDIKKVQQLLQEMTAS

- IC50: 2190 nM
SMILES: N[C@@H]1[C@H](Nc2ncc3ccc(C(=O)Nc4ccccc4C(F)(F)F)n3n2)CCCC1(F)F [Example 137, 2-{[(1R,2R)-2-amino-3,3-difluorocyclohexyl]amino}-N-[2-(trifluoromethyl)phenyl]-pyrrolo[2,1-f][1,2,4]triazine-7-carboxamide trifluoroacetate]

- IC50: 9 nM
SMILES: Cn1cc(NC(=O)c2ccc3cnc(N[C@H]4CNC[C@@H](F)C4)nn23)c(C(F)(F)F)n1 [Example 160, 2-{[(3R,5S)-5-fluoropiperidin-3-yl]amino}-N-[1-methyl-3-(trifluoromethyl)-1H-pyrazol-4-yl]pyrrolo[2,1-f][1,2,4]triazine-7-carboxamide]

- IC50: 5810 nM
SMILES: N[C@@H]1[C@H](Nc2ncc3ccc(C(=O)Nc4ccccc4Br)n3n2)CCCC1(F)F [Example 106, 2-{[(1R,2R)-2-amino-3,3-difluorocyclohexyl]amino}-N-(2-bromophenyl)pyrrolo[2,1-f][1,2,4]triazine-7-carboxamide trifluoroacetate]

- IC50: 64 nM
SMILES: Cn1cc(NC(=O)c2ccc3cnc(N4C[C@@H]5CN[C@@H](C5)C4)nn23)c(C(F)(F)F)n1 (single isomer, unassigned) [Example 100, 2-[(1S,5S)- or (1R,5R)-3,6-diazabicyclo[3.2.1]oct-3-yl]-N-[1-methyl-3-(trifluoromethyl)-1H-pyrazol-4-yl]pyrrolo[2,1-f][1,2,4]triazine-7-carboxamide]

- IC50: 145 nM
SMILES: Cn1cc(NC(=O)c2ccc3cnc(N4C[C@H]5CNC[C@@H]4C5)nn23)c(C(F)(F)F)n1 (single isomer, unassigned) [Example 117, 2-[(1S,5R)- or (1R,5S)-3,6-diazabicyclo[3.2.1]oct-6-yl]-N-[1-methyl-3-(trifluoromethyl)-1H-pyrazol-4-yl]pyrrolo[2,1-f][1,2,4]triazine-7-carboxamide]

- IC50: 64 nM
SMILES: Cn1cc(NC(=O)c2ccc3cnc(N4C[C@H]5CC[C@@H]4CN5)nn23)c(C(F)(F)F)n1 (single isomer, unassigned) [Example 171, 2-[(1S,4S)- or (1R,4R)-2,5-diazabicyclo[2.2.2]oct-2-yl]-N-[1-methyl-3-(trifluoromethyl)-1H-pyrazol-4-yl]pyrrolo[2,1-f][1,2,4]triazine-7-carboxamide]

- IC50: 2 nM
SMILES: Cn1cc(NC(=O)c2ccc3cnc(N4C[C@@H]5CNC[C@H]4C5)nn23)c(C(F)F)n1 (single isomer, unassigned) [Example 119, 2-[(1S,5R)- or (1R,5S)-3,6-diazabicyclo[3.2.1]oct-6-yl]-N-[3-(difluoromethyl)-1-methyl-1H-pyrazol-4-yl]pyrrolo[2,1-f][1,2,4]triazine-7-carboxamide]

- IC50: 4 nM
SMILES: Cn1cc(NC(=O)c2ccc3cnc(N[C@@H]4CNC[C@@H](F)C4)nn23)c(C(F)(F)F)n1 [Example 161, 2-{[(3S,5S)-5-fluoropiperidin-3-yl]amino}-N-[1-methyl-3-(trifluoromethyl)-1H-pyrazol-4-yl]pyrrolo[2,1-f][1,2,4]triazine-7-carboxamide trifluoroacetate]

- IC50: 1040 nM
SMILES: N#Cc1sccc1NC(=O)c1ccc2cnc(N[C@@H]3CCCC(F)(F)[C@@H]3N)nn12 [Example 158, 2-{[(1R,2R)-2-amino-3,3-difluorocyclohexyl]amino}-N-(2-cyanothiophen-3-yl)pyrrolo[2,1-f][1,2,4]triazine-7-carboxamide formate]

- IC50: 867 nM
SMILES: Cn1cc(NC(=O)c2ccc3cnc(N4C[C@@H]5CNC[C@H]4C5)nn23)c(C#N)n1 (single isomer, unassigned) [Example 135, N-(3-cyano-1-methyl-1H-pyrazol-4-yl)-2-[(1R,5S)- or (1S,5R)-3,6-diazabicyclo[3.2.1]oct-6-yl]pyrrolo[2,1-f][1,2,4]triazine-7-carboxamide]

- IC50: 45 nM
SMILES: Cn1cc(NC(=O)c2ccc3cnc(N4C[C@@H]5CNC[C@H]4C5)nn23)c(C(F)(F)F)n1 (single isomer, unassigned) [Example 116, 2-[(1S,5R)- or (1R,5S)-3,6-diazabicyclo[3.2.1]oct-6-yl]-N-[1-methyl-3-(trifluoromethyl)-1H-pyrazol-4-yl]pyrrolo[2,1-f][1,2,4]triazine-7-carboxamide]

- IC50: 3 nM
SMILES: Cn1cc(NC(=O)c2ccc3cnc(N[C@@H]4CC(F)(F)CC[C@@H]4N)nn23)c(C(F)F)n1 (single isomer, unassigned) [Example 140, 2-{[(1S,2R)- or (1R,2S)-2-amino-5,5-difluorocyclohexyl]amino}-N-[3-(difluoromethyl)-1-methyl-1H-pyrazol-4-yl]pyrrolo[2,1-f][1,2,4]triazine-7-carboxamide]

- IC50: 198 nM
SMILES: O=C(Nc1cscc1Cl)c1ccc2cnc(N3C[C@H]4CC[C@@H]3CN4)nn12 (single isomer, unassigned) [Example 108, N-(4-chlorothiophen-3-yl)-2-[(1S,4S)- or (1R,4R)-2,5-diazabicyclo[2.2.2]oct-2-yl]pyrrolo[2,1-f][1,2,4]triazine-7-carboxamide trifluoroacetate]

Further lines, the molecule ahead of its results:

SMILES: Cn1cc(NC(=O)c2ccc3cnc(N[C@@H]4CCCC(F)(F)[C@@H]4N)nn23)c(C(F)(F)F)n1 [Example 8, 2-{[(1R,2R)-2-amino-3,3-difluorocyclohexyl]amino}-N-[1-methyl-3-(trifluoromethyl)-1H-pyrazol-4-yl]pyrrolo[2,1-f][1,2,4]triazine-7-carboxamide trifluoroacetate]
- IC50: 276 nM

SMILES: N#Cc1cscc1NC(=O)c1ccc2cnc(N3CC4CCC3CN4)nn12 (stereo not shown) [Example 36, N-(4-cyanothiophen-3-yl)-2-(2,5-diazabicyclo[2.2.2]oct-2-yl)pyrrolo[2,1-f][1,2,4]triazine-7-carboxamide trifluoroacetate]
- IC50: 426 nM

SMILES: Cn1cc(NC(=O)c2ccc3cnc(N[C@@H]4CCCC[C@@H]4N)nn23)c(C#N)n1 [Example 35, 2-{[(1R,2S)-2-aminocyclohexyl]amino}-N-(3-cyano-1-methyl-1H-pyrazol-4-yl)pyrrolo[2,1-f][1,2,4]triazine-7-carboxamide trifluoroacetate]
- IC50: 1 nM

SMILES: N#Cc1ccccc1NC(=O)c1ccc2cnc(N3CCNCC4(CC4)C3)nn12 [Example 76, N-(2-cyanophenyl)-2-(5,8-diazaspiro[2.6]non-5-yl)pyrrolo[2,1-f][1,2,4]triazine-7-carboxamide trifluoroacetate]
- IC50: 970 nM

SMILES: N#Cc1ccccc1NC(=O)c1ccc2cnc(N[C@@H]3CCCNC3)nn12 [Example 52, N-(2-cyanophenyl)-2-[(3R)-piperidin-3-ylamino]pyrrolo[2,1-f][1,2,4]triazine-7-carboxamide trifluoroacetate]
- IC50: 26 nM

SMILES: N#Cc1sccc1NC(=O)c1ccc2cnc(N[C@@H]3CCCC[C@@H]3N)nn12 [Example 21, 2-{[(1R,2S)-2-aminocyclohexyl]amino}-N-(2-cyanothiophen-3-yl)pyrrolo[2,1-f][1,2,4]triazine-7-carboxamide trifluoroacetate]
- IC50: 1 nM

SMILES: O=C(Nc1cscc1Br)c1ccc2cnc(N3CCCNCC3)nn12 [Example 23, N-(4-bromothiophen-3-yl)-2-(1,4-diazepan-1-yl)pyrrolo[2,1-f][1,2,4]triazine-7-carboxamide trifluoroacetate]
- IC50: 1680 nM

SMILES: N[C@H]1CCCC[C@H]1Nc1ncc2ccc(C(=O)Nc3ccsc3C(F)(F)F)n2n1 [Example 88, 2-{[(1R,2S)-2-aminocyclohexyl]amino}-N-[2-(trifluoromethyl)thiophen-3-yl]pyrrolo[2,1-f][1,2,4]triazine-7-carboxamide trifluoroacetate]
- IC50: 58 nM

SMILES: N#Cc1ccccc1NC(=O)c1ccc2cnc(N[C@@H]3CCCCNC3)nn12 (single isomer, unassigned) [Example 73, 2-[(3S)- or (3R)-azepan-3-ylamino]-N-(2-cyanophenyl)pyrrolo[2,1-f][1,2,4]triazine-7-carboxamide trifluoroacetate]
- IC50: 27 nM

SMILES: O=C(Nc1ccsc1Cl)c1ccc2cnc(N3CCCNCC3)nn12 [Example 31, N-(2-chlorothiophen-3-yl)-2-(1,4-diazepan-1-yl)pyrrolo[2,1-f][1,2,4]triazine-7-carboxamide trifluoroacetate]
- IC50: 866 nM

SMILES: Cn1cc(NC(=O)c2ccc3cnc(N[C@@H]4CCCC[C@@H]4N)nn23)c(Cl)n1 [Example 25, 2-{[(1R,2S)-2-aminocyclohexyl]amino}-N-(3-chloro-1-methyl-1H-pyrazol-4-yl)pyrrolo[2,1-f][1,2,4]triazine-7-carboxamide trifluoroacetate]
- IC50: 1 nM

SMILES: Cn1cc(NC(=O)c2ccc3cnc(N[C@@H]4CCCNC4)nn23)c(C(F)(F)F)n1 [Example 5, N-[1-methyl-3-(trifluoromethyl)-1H-pyrazol-4-yl]-2-[(3R)-piperidin-3-ylamino]pyrrolo[2,1-f][1,2,4]triazine-7-carboxamide trifluoroacetate]
- IC50: 2 nM

SMILES: O=C(Nc1ccccc1C(F)F)c1ccc2cnc(N3C[C@H]4CC[C@@H]3CN4)nn12 (single isomer, unassigned) [Example 62, 2-[(1S,4S)- or (1R,4R)-2,5-diazabicyclo[2.2.2]oct-2-yl]-N-[2-(difluoromethyl)phenyl]-pyrrolo[2,1-f][1,2,4]triazine-7-carboxamide trifluoroacetate]
- IC50: 944 nM

SMILES: Cn1cc(NC(=O)c2ccc3cnc(N4CCC[C@@H](N)C4)nn23)c(C(F)F)n1 [Example 18, 2-[(3R)-3-aminopiperidin-1-yl]-N-[3-(difluoromethyl)-1-methyl-1H-pyrazol-4-yl]pyrrolo[2,1-f][1,2,4]triazine-7-carboxamide trifluoroacetate]
- IC50: 0.5 nM

SMILES: O=C(Nc1ccsc1C(F)(F)F)c1ccc2cnc(N3C[C@H]4CC[C@@H]3CN4)nn12 (single isomer, unassigned) [Example 87, 2-[(1S,4S)- or (1R,4R)-2,5-diazabicyclo[2.2.2]oct-2-yl]-N-[2-(trifluoromethyl)thiophen-3-yl]pyrrolo[2,1-f][1,2,4]triazine-7-carboxamide trifluoroacetate]
- IC50: 1440 nM
